A word on the share remaining: it is the share of the starting amount still present when the sample was taken. One may read the IC50 as the concentration that inhibits the measured activity by half.

No end group written: not given here.

The values below come from patent US9265845B2, “Imaging methods using engineered integrin binding peptides” (The Board of Trustees of the Leland Stanford Junior …, priority 2006, dated 2016).

The nature of data set [1]: Stability in human serum at 37° C., reversed-phase HPLC. The data set is classed as in vitro ADME. How it is done: (§1) The stability of the knottin peptide 2.5D upon exposure to human or mouse serum at 37° C. was measured. Reversed-phase HPLC was used to quantify the amount of intact knottin peptide remaining at various times post incubation.
Nonradioactive mock-PET tracers are incubated with mouse and human serum for various time points at 37° C., and aliquots are acidified and flash frozen. The aliquots are then thawed and microcentrifuged at high speeds to remove aggregates. The soluble fraction is passed through a Sep-Pak C18 cartridge (Waters Corp), and rinsed several times with water containing 0.1% TFA (solvent A). The cartridge-bound PET-tracers are eluted with 90% acetonitrile containing 0.1% TFA, lyophilized, and resuspended in solvent A. The solution is passed through a NANOSEP (Pall Corp) 10 kDa cutoff filter and analyzed by reversed-phase HPLC to determine the amount of polypeptide-conjugate remaining.

In data set [2] the target is α5β1 integrin (Homo sapiens, UniProt P05556+P08648). Briefly: Competition of 125I-echistatin to detergent-solubilized plate-coated integrin. Format: binding. The following applies: 0.06 nM 125I echistatin, 5 nM and 50 nM peptide. How it is done:
(§2) FIG. 10A through FIG. 10D is a series of histograms showing binding specificities to integrins αvβ3, αvβ5, α5β1, and αiibβ3 for engineered EETI-RGD peptides compared to controls. Error bars represent experiments performed in triplicate. Competition binding of 0.06 nM ^125I echistatin with 5 nM (black bars) and 50 nM (grey bars) unlabeled peptide to plate-coated integrins was measured. […] The engineered peptides have very little binding to αiibβ3 integrin.
(§3) This was done by competition of ^125I-echistatin to detergent-solubilized integrin receptors coated onto microtiter plates (see FIG. 10). […] This is consistent with previous studies which have shown αv integrin receptors can accommodate a wide range of RGD-containing cyclic structures. […] However, since α5β1 integrins are expressed on many tumors and are all involved in mediating angiogenesis and metastasis, a broad spectrum agent that targets all three integrins will be useful for diagnostic and therapeutic applications. With the exception of echistatin, all of the RGD-containing peptides bound weakly to the αiibβ3 receptor, showing the specificity of the present peptides for the αv and α5-containing integrin heterodimers. This characteristic is valuable for molecular imaging and therapeutic applications, since binding to αiibβ3 on platelet cells prevents blood clotting and would lead to non-specific in vivo effects.

In data set [3] the target is αvβ5 integrin (Homo sapiens, UniProt P06756+P18084). The description is as above. The data set is classed as binding. The following applies: 0.06 nM 125I echistatin, 5 nM and 50 nM peptide. As for the experimental part: as §2, §3
Data set [4] deals with αvβ3 integrin (Homo sapiens, UniProt P05106+P06756). The description is as above. The following applies: 0.06 nM 125I echistatin, 5 nM and 50 nM peptide. The data set is classed as binding. As for the experimental part:
as §2, §3

In data set [5] the test system is U87MG glioblastoma cells. As to the kind of experiment: Blocking of U87MG cell adhesion to fibronectin-coated plates. Format: cell-based. From the text: (§4) The present engineered peptides may be used in a variety of ways. If the peptides are attached to a surface, they may be used to attract/recruit cells to grow on the surface. For example, the present peptides may be applied to prosthetic devices, implants, bone grafts, and the like to promote tissue growth and healing at the site. They may be attached to culture dishes and promote attachment and differentiation of cells in culture. In addition, the present engineered peptides may be used to modulate cell binding to selected integrins such as α5β1, αvβ3 and αvβ5, particularly αvβ3, by adding the peptides to a cell culture to prevent cells expressing these integrins from adhering to a substrate. […] Also, the present 2.5F, 2.5D and 1.5B peptides were tested for blocking adhesion of U87MG glioblastoma cells to fibronectin-coated plates.
(§5) In another experiment, the ability of engineered knottin peptides to block U87MG cell adhesion to vitronectin- and fibronectin-coated microtiter plates. Vitronectin is a natural ligand for several integrins, including αvβ3 and αvβ5. The RGD-containing peptides were all able to inhibit U87MG cell adhesion to vitronectin-coated plates in a dose-responsive manner. […] Fibronectin also binds to several integrins, (including αvβ3 and α5β1), but the α5β1 integrin receptor is generally selective for fibronectin.

Data set [6] concerns U87MG tumor. As to the kind of experiment: MicroPET imaging and biodistribution of radiolabeled peptides in U87MG tumor-bearing mice. Format: in vivo, mouse. The following applies: 64Cu-DOTA-labeled peptides, compared to 64Cu-DOTA-c(RGDyK). As for the experimental part:
MicroPET imaging of tumor-bearing mice is performed on a microPET R4 rodent model scanner (Concorde Microsystems Inc, Knoxyille, Tenn.). U87MG tumor bearing mice are injected with PET imaging agent via the tail vein. At various times post injection, the mice are anesthetized with 2% isoflurane, and 10 min static scans are obtained. Images are reconstructed by a two-dimensional ordered expectation maximum subset algorithm as previously described. Regions of interest (ROI) are drawn over the tumor on decay corrected whole body images and ROI derived % injected dose per gram of tissue is determined. Statistical analysis is performed using the student's t-test for unpaired data. A 95% confidence level is used to determine statistical significance.
Female athymic mice bearing U87MG tumors were injected with 80-150 μCi of ^64Cu-DOTA-knottin 2.5D or 7-9 μCi of [^18F]-FB-E[knottin 2.5D]. Static images were taken at various timepoints post injection using a microPET R4 rodent model scanner (Concorde Microsystems Inc, Knoxyille, Tenn.). […] Uptake was also observed in the kidney as both probes cleared through the bladder.
Mice are sacrificed by exanguinations at various time points postinjection. Blood, tumor and the major organs and tissues are collected, wet-weighed and measured in a γ-counter. The % injected dose per gram is determined for each sample. For each mouse, radioactivity of the tissue samples is calibrated against a known aliquot of the injectate. Values are reported as the mean±standard deviation.
The following Table 10 quantifies the ^64Cu-DOTA knottin uptake by direct tissue sampling of the mice up to 24 hours post injection and is reported in % ID (percent injected dose)/gram. Similar results were obtained with [^18F]-FB-E[knottin 2.5D].
A U87MG glioblastoma xenograft mouse model was used. U87MG cells were maintained at 37° C. in a humidified atmosphere containing 5% CO2 in Dulbecco's modified eagle medium, 10% heat-inactivated fetal bovine serum, and penicillin-streptomycin (all from Invitrogen). Animal procedures were carried out according to a protocol by Stanford University Administrative Panels on Laboratory Animal Care. Female athymic nude mice (nu/nu), obtained at 4-6 weeks of age (Charles River Laboratories, Inc.), were injected subcutaneously in the right or left shoulder with 2×10^7 U87MG glioblastoma cells suspended in 100 μL of PBS. Mice were used for in vivo imaging studies when their tumors reached approximately 8 to 10 millimeters in diameter.
U87MG tumor-bearing mice (n=3 or more for each probe) were injected with ˜100 μCi of ^64Cu-DOTA-conjugated peptides via the tail vein and imaged with a microPET R4 rodent model scanner (Siemens Medical) using 3 or 5 min static scans. […] Images were reconstructed by a two dimensional ordered expectation maximum subset algorithm and calibrated as previously described (Wu, Y, Zhang, X, Xiong, Z, et al. microPET imaging of glioma integrin {alpha}v{beta}3 expression using (64)Cu-labeled tetrameric RGD peptide. J Nucl Med 2005; 46:1707-18). ROIs were drawn over the tumor on decay-corrected whole body images using ASIPro VM software (Siemens Medical). The mean counts per pixel per minute were obtained from the ROI and converted to counts per milliliter per minute with a calibration constant. ROIs were converted to counts/g/min, and % ID/g values were determined assuming a tissue density of 1 g/mL. No attenuation correction was performed.

Data set [7] deals with U87MG glioblastoma cells. As to the kind of experiment: Blocking of U87MG cell adhesion to vitronectin-coated plates. The data set is classed as cell-based. As to conditions: vitronectin-coated plates.
Excerpt: as §4, §5
Whether the engineered AgRP peptides could block vitronectin-mediated adhesion to the U87MG cells was tested using an analogous assay. […] The AgRP peptides may not effectively block U87MG adhesion compared to the K562-αvβ3 cells because the αvβ5 integrins co-expressed on the surface of the U87MG cells could also contribute to vitronectin-mediated adhesion and compensate for the loss of αvβ3 integrin function.

Data set [8] is described as follows: in vitro. Format: in vitro ADME. As to conditions: mouse serum, 37° C., read-out: peptide remaining.
Excerpt: Their larger size (˜3-4 kDa) and enhanced affinity compared to RGD-based cyclic peptides confer enhanced pharmacokinetics and biodistribution for molecular imaging and therapeutic applications. This is described in connection with FIG. 8. These RGD-miniproteins are small enough to allow for chemical synthesis and site-specific conjugation of imaging probes, radioisotopes, or chemotherapeutic agents. Furthermore, they can easily be chemically modified to further improve in vivo properties if necessary. […] The tumor is indicated by an arrow. The near infrared fluorescent Cy5.5 label study provides guidance for the preparation of these polypeptides as ^18F and ^64Cu-labeled PET imaging probes. […]
as §1
Nonradioactive mock-PET tracers are incubated with mouse and human serum for various time points at 37° C., and aliquots are acidified and flash frozen. […] The cartridge-bound PET-tracers are eluted with 90% acetonitrile containing 0.1% TFA, lyophilized, and resuspended in solvent A. The solution is passed through a NANOSEP (Pall Corp) 10 kDa cutoff filter and analyzed by reversed-phase HPLC to determine the amount of polypeptide-conjugate remaining.

Data set [9] has as its system αvβ3 and αvβ5 integrins. The following applies: inhibiting cell adhesion mediated by αvβ3 and αvβ5 integrins; cited from earlier work.
The subject of data set [10] is α5β1 expressing cells. The following applies: inhibiting attachment of α5β1 expressing cells to fibronectin; cited from earlier work.
The target in data set [11] is T1, αvβ3 integrin on U87MG glioblastoma cells (Homo sapiens, UniProt P05106+P06756).
T1 construct: host or cells: U87MG glioblastoma cells
As to the kind of experiment: 125I-echistatin competition binding to U87MG glioblastoma cells. As for the experimental part:
FIG. 9 is a graph showing normalized competition plotted against peptide concentration in an integrin-binding assay on U87MG glioblastoma cells.
U87MG glioblastoma cells, which express ˜10^5 αvβ3 integrin receptors per cell, were used for these studies. […] An EETI-based polypeptide with a scrambled RDG amino acid sequence, designated FN-RDG, served as a negative control.
Half-maximal inhibitory concentrations (IC50) […] of data measured on at least three separate days. Data for unlabeled and Cy5.5-labeled peptides are shown. Site-specific labeling of RGD miniproteins with a near-infrared optical imaging probe: The free N-terminal amine of our polypeptides was used for site-specific attachment of Cy5.5, a near infrared imaging probe.
An αvβ3 integrin receptor binding assay is performed to determine the relative affinities of the mock-PET tracers compared to their unlabeled polypeptides. Briefly, 2×10^5 U87MG glioblastoma cells are incubated with 0.06 nM ^125I-echistatin in integrin binding buffer (25 mM Tris-HCl, pH 7.4, 150 mM NaCl2 1 mM CaCl2 1 mM MgCl2, 1 mM MnCl2, 0.1% BSA), in the presence of increasing concentrations of mock-PET tracers at room temperature. After incubation for 3 h, cells are pelleted by centrifugation at 1500 RPM and washed three times in binding buffer to remove unbound ligands. The radioactivity remaining in the cell pellet is measured by γ counting. IC50 values are determined by plotting the % competition and using a four-point binding equation (Kaleidagraph) to fit the data.

The target in data set [12] is αiibβ3 integrin (Homo sapiens, UniProt P05106+P08514). As to the kind of experiment: Competition of 125I-echistatin to detergent-solubilized plate-coated integrin. The data set is classed as binding. As to conditions: 0.06 nM 125I echistatin, 5 nM and 50 nM peptide. As for the experimental part:
as §2, §3

Data set [13] relates to fibronectin cell adhesion. The following applies: cited from earlier work.

Regarding `CC(C)[C@@H]1NC(=O)[C@@H]2CSSC[C@H](NC(=O)CN)C(=O)N3CCC[C@H]3C(=O)N[C@@H](CCC(N)=O)C(=O)NCC(=O)N[C@@H](CCCNC(=N)N)C(=O)NCC(=O)N[C@@H](CC(=O)O)C(=O)N[C@@H](Cc3c[nH]c4ccccc34)C(=O)N[C@@H](C)C(=O)N3CCC[C@H]3C(=O)N[C@@H]([C@@H](C)O)C(=O)N[C@@H](CO)C(=O)N[C@H]3CSSC[C@H](NC1=O)C(=O)NCC(=O)N1CCC[C@H]1C(=O)N[C@@H](CC(N)=O)C(=O)NCC(=O)N[C@@H](Cc1ccccc1)C(=O)N[C@H](C(=O)NCC(=O)O)CSSC[C@H](NC(=O)[C@H](CC(=O)O)NC(=O)[C@H](CO)NC(=O)[C@H](CC(=O)O)NC(=O)[C@H](CCC(N)=O)NC(=O)[C@H](CO)NC3=O)C(=O)N[C@@H](CCCNC(=N)N)C(=O)N[C@@H](C)C(=O)NCC(=O)N2` [2.5D], the fraction remaining at 24 h was roughly 90% in data set [1] (24 h, read-out: peptide remaining) and roughly 90% in data set [8] (24 h). The peptide remaining entry in data set [1] (96 h) was “approximately 70%”. Besides, the “binding to α5β1 integrin, in words” value in data set [2] is “only minimal binding”. In [3], the “binding to αvβ5 integrin, in words” value was “strongest levels of binding”. The “binding to αvβ3 integrin, in words” value in [4] is “strongest levels of binding”. In [5], the “blocking of U87MG cell adhesion to fibronectin, in words” value was “only echistatin and polypeptide 2.5F blocked adhesion”. In addition, in data set [6], the “liver uptake, in words” value was “lower liver uptake”. In addition, the “blocking of U87MG cell adhesion to vitronectin, in words” value in data set [7] is on record as “blocked adhesion better than controls”. For the same compound, in [8] (96 h), the amount remaining at 96 h is roughly 70%.

Turning to “ACDCRGDCFCG (disulfide (positions not given here); also: two disulfide bonds, pairing not given here)”, in [9], the “fold more effective than comparable peptides with one disulfide bond” value is recorded as 20 fold and the “fold more potent than linear RGD peptides” value is listed as 200 fold.

On to CRGDCL (also: cyclic), for which, in data set [10], the “fold more potent than linear RGD hexapeptides” value is listed as 10 fold.

With “FN-RDG: EETI-based polypeptide with a scrambled RDG amino acid sequence, negative control (GCVTGRDGSPASSCSQDSDCLAGCVCGPNGFCG)”, the “binding to U87MG cells / competition with 125I-echistatin, in words” value in data set [11] is “not able to compete”. The “binding to αiibβ3 integrin, in words” value in [12] is recorded as “did not bind”. In addition, the “binding to α5β1 integrin, in words” value in data set [2] is “did not bind”. Moreover, the “binding to αvβ5 integrin, in words” value in data set [3] was “did not bind”. Besides, in [4], the “binding to αvβ3 integrin, in words” value is “did not bind”. The “blocking of U87MG cell adhesion to fibronectin, in words” value in data set [5] was “not able to inhibit”. In [7], the “blocking of U87MG cell adhesion to vitronectin, in words” value was “not able to inhibit”.

For GRGD, the IC50 in [13] was 1080 µM.
